According to patent US6537965B1, “Amino-terminal modified parathyroid hormone (PTH) analogs” (The General Hospital Corporation, priority 1998, dated 2003):
Ends that are not written are not given here. Peptide text beside a SMILES is read from it. * marks the point of attachment. Propionyl = CCC(=O)*

Experiments:
Assay type in all cases: cell-based
hPTH-1 receptors [1] = target: T1, hPTH-1 receptors (Homo sapiens, UniProt Q03431); assay: cAMP measurements in SaOS-2 cells; design: expressed in transfected cells; details: SaOS-2 cells, 10,000-20,000 human PTH-1 receptors per cell; up to 1 uM (FIG. 2)
T1 sequence (Q03431 27-593): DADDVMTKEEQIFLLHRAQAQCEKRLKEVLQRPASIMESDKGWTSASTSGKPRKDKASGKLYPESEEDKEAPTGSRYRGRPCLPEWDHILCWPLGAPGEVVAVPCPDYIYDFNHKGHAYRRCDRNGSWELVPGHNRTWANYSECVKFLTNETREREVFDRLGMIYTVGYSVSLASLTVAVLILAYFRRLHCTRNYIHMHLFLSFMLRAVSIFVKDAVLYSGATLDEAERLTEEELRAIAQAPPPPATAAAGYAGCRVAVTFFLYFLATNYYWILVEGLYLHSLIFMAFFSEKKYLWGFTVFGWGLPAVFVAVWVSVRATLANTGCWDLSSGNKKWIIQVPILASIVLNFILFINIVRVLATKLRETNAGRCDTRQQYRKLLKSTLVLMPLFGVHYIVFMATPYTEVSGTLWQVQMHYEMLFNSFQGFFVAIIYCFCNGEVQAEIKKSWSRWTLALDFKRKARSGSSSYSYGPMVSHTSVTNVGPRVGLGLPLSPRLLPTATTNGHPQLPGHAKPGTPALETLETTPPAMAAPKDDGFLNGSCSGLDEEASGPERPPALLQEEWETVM
Description: (§1) The following cell lines were used in these studies. HKRK C53 subclones of LLC-PKI porcine renal epithelial cells which stably express human PTH-1 receptors (150,000 receptors/cell). SaOS-2 cells are transformed human osteosarcoma cells which express relatively few (10,000-20,000 per cell) human PTH-1 receptors. HPR2-7 cells are subclones of LLC-PK1 which express approximately 250,000 recombinant human PTH-2 receptors per cell. HKRK-B7 cells are subclones of LLC-PK which stably express approximately 1 million hPTH-1 receptors per cell. HPR2-22 cells are subclones of LLC-PK1 which express 1.5 million recombinant hPTH-2 receptors per cell. The HPR2-27 and HPR2-22 cell lines were created in the same fashion as the HKRK cells but employing instead type 2 PTH receptor cDNA using the transfection technique of (Bringhurst, F. R., et al., Endocrinology 132(5):2090-2098 (1993); Guo, J., et al., Endocrinology 136(9):3884-3891 (1995)).
(§2) Intracellular cAMP accumulation, PLC activation and PTHR binding affinity were measured as previously reported (Bringhurst, F. R., et al., Endocrinology 132(5):2090-2098 (1993); Guo, J., et al., Endocrinology 136(9):3884-3891 (1995)). Intracellular cAMP accumulation was measured in extracts of cells that were exposed to human PTH peptides in the presence of isobutylmethyxanthine (IBMX, 1 mM) at 37° C. for 15 min. After terminating the reactions by aspiration and freezing in liquid nitrogen, cell monolayers were extracted with 50 mM HCl and cAMP was measured using a radioimmunoassay kit (Dupont-New England Nuclear, Boston, Mass.).

hPTH-1 receptors [2] = target: T1, hPTH-1 receptors; assay: cAMP accumulation (adenylyl cyclase activation) in HKRK C53 cells; design: expressed in transfected cells; details: for reduction of AC activity relative to hPTH(1-34): via the human PTH-1 receptor, clonal LLC-PK1 cells; for cyclic AMP accumulation, efficacy compared with native hPTH(1-34)NH2: HKRK C53 cells, about 150,000 hPTH-1 receptors per cell, 10^-9M and 10^-7M peptide (FIG. 1)
Description: as §1, with “HKRK-B7 cells are subclones of LLC-PK which stably express approximately 1 million hPTH-1 receptors per cell. HPR2-22 cells are subclones of LLC-PK1 which express 1.5 million recombinant hPTH-2 receptors per cell.” left out
as §2

hPTH-2 receptors [3] = target: T2, hPTH-2 receptors (Homo sapiens, UniProt P49190); assay: cAMP measurements in clonal LLC-PK1 cells (HPR2-7); details: for cAMP responsiveness, efficacy compared with hPTH(1-34)NH2 / maximal cyclase activation (maximal response) compared with hPTH(1-34): HPR2-7 cells; for cAMP responsiveness, efficacy compared with hPTH(1-34)NH2: about 250,000 human PTH-2 receptors per cell (FIG. 3); for maximal cyclase activation (maximal response) compared with hPTH(1-34) / EC50 lower than that of hPTH(1-34): human PTH-2 receptor; for maximal cyclase activation (maximal response) compared with hPTH(1-34): very high concentrations (1 micromolar); for EC50: clonal LLC-PK1 cells stably expressing human PTH-2 receptors, read-out: EC50 for activation of AC
T2 construct: expressed in transfected cells
Description: as §1, with “HKRK-B7 cells are subclones of LLC-PK which stably express approximately 1 million hPTH-1 receptors per cell. HPR2-22 cells are subclones of LLC-PK1 which express 1.5 million recombinant hPTH-2 receptors per cell.” left out
as §2

hPTH-1 receptors [4] = target: T1, hPTH-1 receptors; assay: AC activation in HKRK B7 cells; design: expressed in transfected cells; details: HKRK B7 cells (large number of human PTH-1 receptors)
Description: as §1, §2

hPTH-2 receptors [5] = target: T2, hPTH-2 receptors; assay: phospholipase C activation in HPR2-22 cells; details: 1.5 million hPTH-2 receptors per cell, 1,000 nM (FIG. 5)
Description: as §1
(§3) PLC was activated by PTH agonists in the presence of 30 mM LiCl at 37° C. for 30 min after 16 hr of labeling with [^3H]myo-inositol (3uCi/ml) in serum-free medium containing 0.1% bovine serum albumin. The reactions were stopped by rapid aspiration and addition of cold 5% TCA. Water-soluble radiolabeled inositol trisphosphate (IP3) was isolated after ether extraction by ion-exchange chromatography (Guo, J., et al., Endocrinology 136(9):3884-3891 (1995)). In experiments involving HEK 293 cells, cells previously transfected with human PTHR cDNA (in the pcDNA1 expression vector HKRK) using Lipofectamine (Gibco BRL) were labeled with [^3H]myo-inositol and assayed as described above, except that total water-soluble [^3H]inositol polyphosphates were collected as a single fraction from the ion-exchange columns.

hPTH-1 receptors [6] = target: T1, hPTH-1 receptors; assay: phospholipase C (PLC) activity in HKRK-B7 cells; design: expressed in transfected cells; details: for activation of PLC: about 1 million hPTH-1 receptors per cell, 1000 nM (FIG. 4)
Description: as §1, §3

T2 sequence (P49190 25-550): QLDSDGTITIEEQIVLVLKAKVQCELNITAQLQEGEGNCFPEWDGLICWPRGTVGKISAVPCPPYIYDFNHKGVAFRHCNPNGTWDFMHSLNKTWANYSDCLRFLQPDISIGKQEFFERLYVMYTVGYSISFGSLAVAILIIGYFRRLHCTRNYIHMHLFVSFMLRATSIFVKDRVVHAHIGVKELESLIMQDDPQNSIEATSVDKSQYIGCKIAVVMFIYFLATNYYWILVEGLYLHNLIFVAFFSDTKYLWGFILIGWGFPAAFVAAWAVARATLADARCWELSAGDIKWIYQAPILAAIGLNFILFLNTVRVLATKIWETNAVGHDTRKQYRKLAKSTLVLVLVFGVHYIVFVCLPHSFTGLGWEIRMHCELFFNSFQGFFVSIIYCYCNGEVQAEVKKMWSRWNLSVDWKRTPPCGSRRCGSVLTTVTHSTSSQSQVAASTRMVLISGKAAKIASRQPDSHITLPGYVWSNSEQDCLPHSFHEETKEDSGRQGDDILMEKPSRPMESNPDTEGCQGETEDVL

Row | Compound | cyclase (cAMP) activity compared with control hPTH(1-34) (hPTH-1 receptors [1]) | reduction of AC activity relative to hPTH(1-34) (hPTH-1 receptors [2]) | cAMP responsiveness, efficacy compared with hPTH(1-34)NH2 (hPTH-2 receptors [3]) | maximal cyclase activation (maximal response) compared with hPTH(1-34) (hPTH-2 receptors [3]; listed as desamino-[Ala^1]) | maximal cyclase activation (maximal response) compared with hPTH(1-34) (hPTH-2 receptors [3]; listed as desamino-[Ala^1]hPTH(1-34)) | EC50 (hPTH-2 receptors [3]) | EC50 lower than that of hPTH(1-34) (hPTH-2 receptors [3]) | activation of AC compared with hPTH-(1-34) (hPTH-1 receptors [4]) | activation of phospholipase C (hPTH-2 receptors [5]) | activation of PLC (hPTH-1 receptors [6]) | maximal cyclase activation (maximal response) compared with hPTH(1-34) (hPTH-2 receptors [3]; listed as desamino-[Gly^1]) | maximal cyclase activation (maximal response) compared with hPTH(1-34) (hPTH-2 receptors [3]; listed as desamino-[Gly^1]hPTH(1-34)) | cyclic AMP accumulation, efficacy compared with native hPTH(1-34)NH2 (hPTH-1 receptors [2]) | PLC activity as % of the hPTH(1-34) maximum (hPTH-1 receptors [6]; 1000 nM)
1 | CCC(=O)N[C@H](C(=O)N[C@@H](CO)C(=O)N[C@@H](CCC(=O)O)C(=O)N[C@H](C(=O)N[C@@H](CCC(N)=O)C(=O)N[C@@H](CC(C)C)C(=O)N[C@@H](CCSC)C(=O)N[C@@H](Cc1c[nH]cn1)C(=O)N[C@@H](CC(N)=O)C(=O)N[C@@H](CC(C)C)C(=O)NCC(=O)N[C@@H](CCCCN)C(=O)N[C@@H](Cc1c[nH]cn1)C(=O)N[C@@H](CC(C)C)C(=O)N[C@@H](CC(N)=O)C(=O)N[C@@H](CO)C(=O)N[C@@H](CCSC)C(=O)N[C@@H](CCC(=O)O)C(=O)N[C@@H](CCCNC(=N)N)C(=O)N[C@H](C(=O)N[C@@H](CCC(=O)O)C(=O)N[C@@H](Cc1c[nH]c2ccccc12)C(=O)N[C@@H](CC(C)C)C(=O)N[C@@H](CCCNC(=N)N)C(=O)N[C@@H](CCCCN)C(=O)N[C@@H](CCCCN)C(=O)N[C@@H](CC(C)C)C(=O)N[C@@H](CCC(N)=O)C(=O)N[C@@H](CC(=O)O)C(=O)N[C@H](C(=O)N[C@@H](Cc1c[nH]cn1)C(=O)N[C@@H](CC(N)=O)C(=O)N[C@@H](Cc1ccccc1)C(N)=O)C(C)C)C(C)C)[C@@H](C)CC)C(C)C [desamino-[Ala^1]hPTH(1-34)NH2] (Propionyl-VSEIQLMHNLGKHLNSMERVEWLRKKLQDVHNF-NH2) | minimal activity | 10 fold | enhanced efficacy | substantially greater | twice | 10 nM | 3 fold | approximately equipotent | greater maximal activation | no activation of PLC | – | – | – | –
2 | Ac-VSEIQLMHNLGKHLNSMERVEWLRKKLQDVHNF-NH2 [desamino-[Gly^1]hPTH(1-34)NH2] | minimal activity | 10 fold | enhanced efficacy | – | – | 10 nM | 3 fold | approximately equipotent | greater maximal activation | no activation of PLC | substantially greater | twice | – | –
3 | [Ala^1]hPTH(1-34)NH2: hPTH-(1-34) with substitution of Ala^1 for Ser^1 (AVSEIQLMHNLGKHLNSMERVEWLRKKLQDVHNF-NH2; not fully specified (residue 1); UniProt P01270 32-65, looked up, variant S1A) | comparable to that of the control peptide | – | – | – | – | – | – | – | – | fill agonists | – | – | nearly the same efficacy | –
4 | [Gly^1]hPTH(1-34)NH2: hPTH-(1-34) with substitution of Gly^1 for Ser^1 (GVSEIQLMHNLGKHLNSMERVEWLRKKLQDVHNF-NH2; not fully specified (residue 1); UniProt P01270 32-65, looked up, variant S1G) | comparable to that of the control peptide | – | – | – | – | – | – | – | – | only a partial agonist | – | – | nearly the same efficacy | approximately 50%
